Series [1] in a line: 19F NMR line width / signal intensity of the measuring fluorine atom. Type of series: physicochemical. To be noted: in comparison to prior art compound (compound of Example 2 with Y meaning hydrogen); for line width smaller by: signal of the measuring fluorine atom. From the text:
In comparison to the structurally closest compounds of the prior art, the compounds according to the invention show clearly thinner signals for the measuring fluorine atom, so that an identically intensive signal is obtained with a smaller dosage.

Series [2] is described as follows: compatibility in comparison to structurally closest previously-known compound. As to conditions: than structurally closest previously-known compound (compound of Example 2 with Y meaning hydrogen). The format is in vivo. From the text:
(§1) An equally high (undesirable) histamine release is observed with the compound of Example 2 only with the 30-fold dosage of the above-mentioned previously-known comparison substance.

A further series deals with histamine release. As to the kind of experiment: histamine release in comparison to structurally closest previously-known compound. Type of series: in vivo. To be noted: multiple of the dosage of the previously-known comparison substance (compound of Example 2 with Y meaning hydrogen).
Text: as §1

With `O=C(O)CCS(=O)(=O)Nc1ccc(F)c(CC(=O)NC(CO)C(O)CO)c1C(F)(F)F` (centres unmarked) [Example 2, 3-{N-[4-Fluoro-2-trifluoromethylphenyl-3-acetic acid-N-(1-hydroxy-2,3-dihydroxypropyl)-amide]-sulfamoyl}-propionic acid], the “line width smaller by” value in series [1] worked out at 12%. For the same molecule, in series [2], the “compatibility higher by” value worked out at 50%. Further, in the series with histamine release, the “dosage giving equally high (undesirable) histamine release” value is listed as 30 -fold.
On to `O=C(Cc1cc(NS(=O)(=O)CC(F)(F)F)cc(CC(=O)NC(CO)C(O)CO)c1F)NC(CO)C(O)CO` (centres unmarked) [Example 6], for which, in series [1], the signal increase is reported as around 50% and the “line width smaller by” value stood at 25%.

The record behind these values is patent publication US5686492A, “Disubstituted p-fluorobenzenesulfonamides” (Schering Aktiengesellschaft, priority 1994, dated 1997).
